Test [1] deals with T1, Cloned human M1 receptor (CHRM1) (Homo sapiens, UniProt P11229).
T1 construct: expressed in transfected cells; host or cells: HEK293
T1 sequence (P11229 1-460): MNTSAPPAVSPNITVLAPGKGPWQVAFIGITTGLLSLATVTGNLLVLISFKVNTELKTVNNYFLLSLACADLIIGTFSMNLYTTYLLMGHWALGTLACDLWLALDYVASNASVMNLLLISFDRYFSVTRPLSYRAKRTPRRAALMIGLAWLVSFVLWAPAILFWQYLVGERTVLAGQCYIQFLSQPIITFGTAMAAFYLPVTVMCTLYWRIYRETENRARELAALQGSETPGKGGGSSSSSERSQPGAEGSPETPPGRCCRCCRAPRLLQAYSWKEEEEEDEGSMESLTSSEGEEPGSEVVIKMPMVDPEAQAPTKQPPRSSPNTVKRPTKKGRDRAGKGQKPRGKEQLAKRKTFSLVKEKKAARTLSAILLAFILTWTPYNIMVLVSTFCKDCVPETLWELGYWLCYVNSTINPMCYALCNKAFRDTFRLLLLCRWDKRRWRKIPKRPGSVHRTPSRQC
In words: CHRM1 Ca++ Flux Assay (HEK293 M1 cells, agonist mode). Format: cell-based. The following applies: for M1 FDSS PA % / Emax: Percent Activity (PA); for EC50: geometric mean if tested more than once, read-out: M1 FDSS EC50; for Emax: read-out: M1 FDSS PA %. The method, boiled down:
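In agonist mode, compound-induced intracellular Ca++ mobilization was recorded for 3 min by fluorescent imager. The cells were HEK293 stably expressing cloned human CHRM1, in Ca/Mg-free HBSS with 20 mM HEPES. Triplicate 11-point dose-responses were fitted by four-parameter regression and normalized to the carbachol EC100 response.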

Test [2] addresses T2, human cloned CHRM4 receptor (Homo sapiens, UniProt P08173).
T2 construct: expressed in transfected cells; host or cells: CHO-K1 (M4_CHO)
T2 sequence (P08173 1-479): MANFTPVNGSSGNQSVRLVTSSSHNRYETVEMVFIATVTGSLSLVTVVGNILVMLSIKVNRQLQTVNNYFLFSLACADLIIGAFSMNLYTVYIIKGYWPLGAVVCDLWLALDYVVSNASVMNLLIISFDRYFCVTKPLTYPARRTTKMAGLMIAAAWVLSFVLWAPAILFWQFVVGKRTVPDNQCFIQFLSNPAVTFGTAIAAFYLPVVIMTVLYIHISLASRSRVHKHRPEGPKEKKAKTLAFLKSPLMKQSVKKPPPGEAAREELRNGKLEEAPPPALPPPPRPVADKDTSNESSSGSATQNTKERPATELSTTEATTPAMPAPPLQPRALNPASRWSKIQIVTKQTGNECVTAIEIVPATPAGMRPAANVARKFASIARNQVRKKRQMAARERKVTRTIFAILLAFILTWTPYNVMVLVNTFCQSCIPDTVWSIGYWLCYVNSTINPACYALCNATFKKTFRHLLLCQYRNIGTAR
In words: CHRM4 Ca++ Flux Assay (M4_CHO cells, agonist mode). Format: cell-based. The following applies: for M4 FDSS PA % / Emax: Percent Activity (PA); for EC50: geometric mean if tested more than once, read-out: M4 FDSS EC50; for Emax: read-out: M4 FDSS PA %. The method, boiled down: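 Agonist-mode calcium flux in an M4-expressing CHO-K1 line: compounds were dosed at 11 points in triplicate and fluorescence was tracked for 3 min. Cells were preloaded with Ca++ dye and kept in −Ca/−Mg HBSS with 20 μM ATP for 60 min. Efficacy is scaled to carbachol EC100; EC50s come from four-parameter regression, geometric mean across runs.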

Data on 15 molecules can be found in US11485742B2, “2-azaspiro[3.4]octane derivatives as M4 agonists” (NOVARTIS AG, priority 2019, dated 2022).

As a reminder, the EC50 is the concentration at which the effect is half-maximal. Consider `OC[C@H]1C[C@H](Oc2ccc(F)cc2C2CCN([C@@H]3COC4(C3)CN(c3nnco3)C4)CC2)C1` (single isomer, unassigned) [Example 2HH, ((1S,3r)-3-(2-(1-((S)-2-(1,3,4-oxadiazol-2-yl)-5-oxa-2-azaspiro[3.4]octan-7-yl)piperidin-4-yl)-4-fluorophenoxy)cyclobutyl)methanol or ((1R,3s)-3-(2-(1-((S)-2-(1,3,4-oxadiazol-2-yl)-5-oxa-2-azaspiro[3.4]octan-7-yl)piperidin-4-yl)-4-fluorophenoxy)cyclobutyl)methanol], for which, in test [1], the “M1 FDSS PA %” value was 96% and the concentration giving a half-maximal response (EC50) was 2570 nM. Moreover, in test [2], the “M4 FDSS PA %” value is 85% and the EC50 was found to be 124 nM.

Consider `CC(C)(O)[C@H]1C[C@H](Oc2ccc(F)cc2C2CCN([C@@H]3COC4(C3)CN(c3nnco3)C4)CC2)C1` (single isomer, unassigned) [Example 2V, 2-((1S,3r)-3-(2-(1-((S)-2-(1,3,4-oxadiazol-2-yl)-5-oxa-2-azaspiro[3.4]octan-7-yl)piperidin-4-yl)-4-fluorophenoxy)cyclobutyl)propan-2-ol or 2-((1R,3s)-3-(2-(1-((S)-2-(1,3,4-oxadiazol-2-yl)-5-oxa-2-azaspiro[3.4]octan-7-yl)piperidin-4-yl)-4-fluorophenoxy)cyclobutyl)propan-2-ol], for which, in test [1], the “M1 FDSS PA %” value turned out to be 31% and the EC50 was determined as 1650 nM. Further, in test [2], the “M4 FDSS PA %” value was 75% and the EC50 worked out at 94 nM.

In the case of `Fc1cc(F)c(OC2CCOCC2)c(C2CCN([C@@H]3COC4(C3)CN(c3nnco3)C4)CC2)c1` [Example 2BB, (S)-7-(4-(3,5-difluoro-2-((tetrahydro-2H-pyran-4-yl)oxy)phenyl)piperidin-1-yl)-2-(1,3,4-oxadiazol-2-yl)-5-oxa-2-azaspiro[3.4]octane], in test [1], the Emax worked out at 65% and the EC50 came to 7000 nM. Besides, in test [2], the Emax is 91% and the EC50 worked out at 946 nM.

For `Fc1ccc(OC[C@H]2CCO2)c(C2CCN([C@@H]3COC4(C3)CN(c3nncs3)C4)CC2)c1.O=C(O)C(F)(F)F` (single isomer, unassigned) [Example 2C, (S)-7-(4-(5-fluoro-2-(((R)-oxetan-2-yl)methoxy)phenyl)piperidin-1-yl)-2-(1,3,4-thiadiazol-2-yl)-5-oxa-2-azaspiro[3.4]octane trifluoroacetate or (S)-7-(4-(5-fluoro-2-(((S)-oxetan-2-yl)methoxy)phenyl)piperidin-1-yl)-2-(1,3,4-thiadiazol-2-yl)-5-oxa-2-azaspiro[3.4]octane trifluoroacetate], in test [1], the “M1 FDSS PA %” value is reported as 75% and the EC50 is 1150 nM. Also, in test [2], the “M4 FDSS PA %” value was 72% and the EC50 was determined as 94 nM.

Take `COc1ccccc1C1CCN([C@@H]2COC3(C2)CN(c2ncco2)C3)CC1` [Example 4N, (S)-7-(4-(2-methoxyphenyl)piperidin-1-yl)-2-(oxazol-2-yl)-5-oxa-2-azaspiro[3.4]octane]: in test [1], the Emax stood at 64% and the EC50 is 384 nM. For the same molecule, in test [2], the Emax is 74% and the EC50 came to 93 nM.

Turning to `Fc1ccc(OCC2C3COCC32)c(C2CCN([C@@H]3COC4(C3)CN(c3nnco3)C4)CC2)c1` (stereo partly drawn) [Example 2Z, (7S)-7-(4-(2-((3-oxabicyclo[3.1.0]hexan-6-yl)methoxy)-5-fluorophenyl)piperidin-1-yl)-2-(1,3,4-oxadiazol-2-yl)-5-oxa-2-azaspiro[3.4]octane], in test [1], the Emax worked out at 11% and the EC50 was found to be 5060 nM. Further, in test [2], the Emax was determined as 51% and the EC50 was 108 nM.

As to `Fc1cc(F)c(OC2CC3(COC3)C2)c(C2CCN([C@@H]3COC4(C3)CN(c3nnco3)C4)CC2)c1` [Example 2AA, (S)-7-(4-(2-((2-oxaspiro[3.3]heptan-6-yl)oxy)-3,5-difluorophenyl)piperidin-1-yl)-2-(1,3,4-oxadiazol-2-yl)-5-oxa-2-azaspiro[3.4]octane], in test [1], the Emax is 30% and the EC50 was determined as 6660 nM. Further, in test [2], the Emax amounted to 16% and the EC50 worked out at 210 nM.

Turning to `c1ccc([C@@H]2CCOC2)c(C2CCN([C@@H]3COC4(C3)CN(c3nnco3)C4)CC2)c1` (single isomer, unassigned) [Example 3A, (S)-2-(1,3,4-oxadiazol-2-yl)-7-(4-(2-((S)-tetrahydrofuran-3-yl)phenyl)piperidin-1-yl)-5-oxa-2-azaspiro[3.4]octane or (S)-2-(1,3,4-oxadiazol-2-yl)-7-(4-(2-((R)-tetrahydrofuran-3-yl)phenyl)piperidin-1-yl)-5-oxa-2-azaspiro[3.4]octane], in test [1], the “M1 FDSS PA %” value amounted to 85% and the EC50 amounted to 1110 nM. Besides, in test [2], the “M4 FDSS PA %” value came out at 91% and the concentration giving a half-maximal response (EC50) came out at 83 nM.

`COc1ccccc1C1CCN([C@@H]2COC3(C2)CN(c2ncns2)C3)CC1` [Example 5B, (S)-7-(4-(2-methoxyphenyl)piperidin-1-yl)-2-(1,2,4-thiadiazol-5-yl)-5-oxa-2-azaspiro[3.4]octane]: the Emax in test [1] was 22%; in test [2] it was 59%. Also, the EC50 is 1570 nM in test [1] and 87 nM in test [2].

For `CC(C)(O)COc1ccc(F)cc1C1CCN([C@@H]2COC3(C2)CN(c2ncco2)C3)CC1` [Example 4K, (S)-1-(4-fluoro-2-(1-(2-(oxazol-2-yl)-5-oxa-2-azaspiro[3.4]octan-7-yl)piperidin-4-yl)phenoxy)-2-methylpropan-2-ol], in test [1], the Emax is 60% and the EC50 is 444 nM. Besides, in test [2], the Emax is 66% and the EC50 is 25 nM.

`Fc1ccc(O[C@H]2CCOC2)c(C2CCN([C@@H]3COC4(C3)CN(c3nnco3)C4)CC2)c1` [Example 1H, (S)-7-(4-(5-fluoro-2-(((S)-tetrahydrofuran-3-yl)oxy)phenyl)piperidin-1-yl)-2-(1,3,4-oxadiazol-2-yl)-5-oxa-2-azaspiro[3.4]octane]: in test [1], the Emax was found to be 87% and the EC50 came out at 631 nM. Moreover, in test [2], the Emax is 77% and the EC50 is 34 nM.

As for `Fc1ccc(OC2COC2)c(C2CCN([C@@H]3COC4(C3)CN(c3ncco3)C4)CC2)c1` [Example 4A, (S)-7-(4-(5-fluoro-2-(oxetan-3-yloxy)phenyl)piperidin-1-yl)-2-(oxazol-2-yl)-5-oxa-2-azaspiro[3.4]octane], in test [1], the Emax turned out to be 84% and the EC50 was determined as 234 nM. In addition, in test [2], the Emax is 80% and the EC50 was 4 nM.

As for `Fc1cc(F)c(O[C@@H]2CCOC2)c(C2CCN([C@@H]3COC4(C3)CN(c3nnco3)C4)CC2)c1` [Example 2CC, (S)-7-(4-(3,5-difluoro-2-(((R)-tetrahydrofuran-3-yl)oxy)phenyl)piperidin-1-yl)-2-(1,3,4-oxadiazol-2-yl)-5-oxa-2-azaspiro[3.4]octane], in test [1], the Emax was 85% and the 50% effective concentration (EC50) is 2180 nM. For the same molecule, in test [2], the Emax was 79% and the EC50 amounted to 168 nM.

Consider `Fc1ccc(OC2CCOCC2)c(C2CCN([C@@H]3COC4(C3)CN(c3nnco3)C4)CC2)c1` [Example 1G, (S)-7-(4-(5-fluoro-2-((tetrahydro-2H-pyran-4-yl)oxy)phenyl)piperidin-1-yl)-2-(1,3,4-oxadiazol-2-yl)-5-oxa-2-azaspiro[3.4]octane], for which, in test [1], the Emax turned out to be 77% and the EC50 was found to be 973 nM. Besides, in test [2], the Emax came out at 84% and the EC50 was 31 nM.

In the case of `O[C@H]1CC[C@@H](c2ccc(F)cc2C2CCN([C@@H]3COC4(C3)CN(c3nnco3)C4)CC2)CC1` (single isomer, unassigned) [Example 3I, (1R,4s)-4-(2-(1-((S)-2-(1,3,4-oxadiazol-2-yl)-5-oxa-2-azaspiro[3.4]octan-7-yl)piperidin-4-yl)-4-fluorophenyl)cyclohexan-1-ol or (1S,4r)-4-(2-(1-((S)-2-(1,3,4-oxadiazol-2-yl)-5-oxa-2-azaspiro[3.4]octan-7-yl)piperidin-4-yl)-4-fluorophenyl)cyclohexan-1-ol], in test [1], the “M1 FDSS PA %” value came to 76% and the EC50 came out at 3310 nM. In test [2], the “M4 FDSS PA %” value was determined as 91.2% and the 50% effective concentration (EC50) amounted to 38 nM.
